# Patent US10844032B2, “Substituted benzofuran, benzothiophene and indole Mcl-1 inhibitors” (Vanderbilt University, priority 2012, dated 2020)
# Biological target: recombinant Mcl-1 (residues 172-327) (Homo sapiens (Human), UniProt Q07820)
# Assay: Bak peptide fluorescence polarization anisotropy competition assay, Mcl-1
# Type: binding
# Conditions: Table 2, Ki range; FITC-Bak peptide 10 nM, Mcl-1 14 nM; read-out: Ki for inhibition of Mcl-1
# recombinant Mcl-1 (residues 172-327), sequence (Q07820 172-327): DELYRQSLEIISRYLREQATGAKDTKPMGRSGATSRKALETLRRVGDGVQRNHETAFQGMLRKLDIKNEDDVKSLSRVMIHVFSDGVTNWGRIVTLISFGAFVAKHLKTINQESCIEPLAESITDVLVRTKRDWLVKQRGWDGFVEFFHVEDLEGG
row,Ki,SMILES
1,≤ 100 nM,"Cc1cc(OCCCc2c(C(=O)NS(=O)(=O)c3ccccc3)[nH]c3c(-c4c(C)noc4C)cccc23)cc(C)c1Cl [Example 88, 3-(3-(4-chloro-3,5-dimethylphenoxy)propyl)-7-(3,5-dimethylisoxazol-4-yl)-N-(phenylsulfonyl)-1H-indole-2-carboxamide]"
2,≤ 100 nM,"Cc1cc(OCCCc2c(C(=O)NS(=O)(=O)c3ccccc3)[nH]c3c(-c4ccnc5ccccc45)cccc23)cc(C)c1Cl [Example 92, 3-(3-(4-chloro-3,5-dimethylphenoxy)propyl)-N-(phenylsulfonyl)-7-(quinolin-4-yl)-1H-indole-2-carboxamide]"
3,≤ 100 nM,"Cc1cc(OCCCc2c(C(=O)NS(=O)(=O)c3ccccc3)[nH]c3c(-c4c(CO)nn(C)c4C)cccc23)cc(C)c1Cl [Example 127, 3-(3-(4-chloro-3,5-dimethylphenoxy)propyl)-7-(3-(hydroxymethyl)-1,5-dimethyl-1H-pyrazol-4-yl)-N-(phenylsulfonyl)-1H-indole-2-carboxamide]"
4,≤ 100 nM,"Cc1cc(OCCCc2c(C(=O)NS(=O)(=O)CCNC(=O)c3cccn3C)[nH]c3ccccc23)cc(C)c1Cl [Example 170, 3-(3-(4-chloro-3,5-dimethylphenoxy)propyl)-N-((2-(1-methyl-1H-pyrrole-2-carboxamido)ethyl)sulfonyl)-1H-indole-2-carboxamide]"

# Same assay, conditions: read-out: Ki for inhibition of Mcl-1
row,Ki,SMILES
1,1000 to 9990 nM,"CS(=O)(=O)NC(=O)c1[nH]c2ccccc2c1CCCOc1cccc2c1CCC2 [Example 74, 3-(3-((2,3-dihydro-1H-inden-4-yl)oxy)propyl)-N-(methylsulfonyl)-1H-indole-2-carboxamide]"
2,1000 to 9990 nM,"CS(=O)(=O)NC(=O)c1[nH]c2ccccc2c1CCCOc1cccc2c1CCCC2 [Example 46, N-(methylsulfonyl)-3-(3-((5,6,7,8-tetrahydronaphthalen-1-yl)oxy)propyl)-1H-indole-2-carboxamide]"
3,101 to 299 nM,"Cc1cc(OCCCc2c(C(=O)NS(=O)(=O)CCNC(=O)c3ccc4cc[nH]c4c3)[nH]c3ccccc23)cc(C)c1Cl [Example 176, N-((2-(1H-indole-6-carboxamido)ethyl)sulfonyl)-3-(3-(4-chloro-3,5-dimethylphenoxy)propyl)-1H-indole-2-carboxamide]"
4,101 to 299 nM,"Cc1ccc(C(=O)NCCS(=O)(=O)NC(=O)c2[nH]c3ccccc3c2CCCOc2cc(C)c(Cl)c(C)c2)o1 [Example 157, 3-(3-(4-chloro-3,5-dimethylphenoxy)propyl)-N-((2-(5-methylfuran-2-carboxamido)ethyl)sulfonyl)-1H-indole-2-carboxamide]"
5,101 to 299 nM,"Cc1cc(OCCCc2c(C(=O)NS(=O)(=O)c3ccccc3)n(Cc3cccnc3)c3cc(Cl)ccc23)cc(C)c1Cl [Example 272, 6-chloro-3-(3-(4-chloro-3,5-dimethylphenoxy)propyl)-N-(phenylsulfonyl)-1-(pyridin-3-ylmethyl)-1H-indole-2-carboxamide]"
6,101 to 299 nM,"Cc1cc(OCCCc2c(C(=O)NS(=O)(=O)CCNC(=O)CC34CC5CC(CC(C5)C3)C4)[nH]c3ccccc23)cc(C)c1Cl [Example 179, N-((2-(2-((1s,3s)-adamantan-1-yl)acetamido)ethyl)sulfonyl)-3-(3-(4-chloro-3,5-dimethylphenoxy)propyl)-1H-indole-2-carboxamide]"
7,101 to 299 nM,"CC(=O)NCCS(=O)(=O)NC(=O)c1[nH]c2cc(Cl)ccc2c1CCCOc1cc(C)c(Cl)c(C)c1 [Example 251, N-((2-acetamidoethyl)sulfonyl)-6-chloro-3-(3-(4-chloro-3,5-dimethylphenoxy)propyl)-1H-indole-2-carboxamide]"
8,1000 to 9990 nM,"Cc1cc(OCCCc2c(C(=O)NS(C)(=O)=O)sc3cccc(Cl)c23)cc(C)c1Cl [Example 71, 4-chloro-3-(3-(4-chloro-3,5-dimethylphenoxy)propyl)-N-(methylsulfonyl)benzo[b]thiophene-2-carboxamide]"
9,101 to 299 nM,"COc1ccccc1-c1cccc2c(CCCOc3cc(C)c(Cl)c(C)c3)c(C(=O)NS(C)(=O)=O)[nH]c12 [Example 85, 3-(3-(4-chloro-3,5-dimethylphenoxy)propyl)-7-(2-methoxyphenyl)-N-(methylsulfonyl)-1H-indole-2-carboxamide]"
10,301 to 500 nM,"Cc1cc(OCCCc2c(C(=O)NS(=O)(=O)CCNC(=O)Cc3ccc(Br)cc3)[nH]c3ccccc23)cc(C)c1Cl [Example 169, N-((2-(2-(4-bromophenyl)acetamido)ethyl)sulfonyl)-3-(3-(4-chloro-3,5-dimethylphenoxy)propyl)-1H-indole-2-carboxamide]"
11,301 to 500 nM,"Cc1cc(OCCCc2c(C(=O)NS(=O)(=O)c3ccc(OCc4ccccc4)nc3)[nH]c3ccccc23)cc(C)c1Cl [Example 144, N-((6-(benzyloxy)pyridin-3-yl)sulfonyl)-3-(3-(4-chloro-3,5-dimethylphenoxy)propyl)-1H-indole-2-carboxamide]"
12,1000 to 9990 nM,"Cc1cc(OCCCc2c(C(=O)NS(=O)(=O)CCNC(=O)c3cc(F)cc(F)n3)[nH]c3ccccc23)cc(C)c1Cl [Example 191, 3-(3-(4-chloro-3,5-dimethylphenoxy)propyl)-N-((2-(4,6-difluoropicolinamido)ethyl)sulfonyl)-1H-indole-2-carboxamide]"
13,101 to 299 nM,"Cc1ccccc1-c1cccc2c(CCCOc3cccc4ccccc34)c(C(=O)O)sc12 [Example 10, 3-(3-(naphthalen-1-yloxy)propyl)-7-(o-tolyl)benzo[b]thiophene-2-carboxylic acid]"
14,1000 to 9990 nM,"Cc1ccc2c(CCCOc3cccc4ccccc34)c(C(=O)NS(C)(=O)=O)[nH]c2c1 [Example 118, 6-Methyl-N-(methylsulfonyl)-3-(3-(naphthalen-1-yloxy)propyl)-1H-indole-2-carboxamide]"
15,501 to 999 nM,"O=C(NS(=O)(=O)C(F)(F)F)c1cc2ccccc2n1CCCOc1cccc2ccccc12 [Example 15, 1-(3-(naphthalen-1-yloxy)propyl)-N-((trifluoromethyl)sulfonyl)-1H-indole-2-carboxamide]"
16,501 to 999 nM,"Cc1cc(OCCCc2c(C(=O)NS(=O)(=O)Cc3ccccc3)sc3ccccc23)cc(C)c1Cl [Example 70, N-(benzylsulfonyl)-3-(3-(4-chloro-3,5-dimethylphenoxy)propyl)benzo[b]thiophene-2-carboxamide]"
17,501 to 999 nM,"O=C(O)c1sc2c(-c3ccccc3)cccc2c1CCCOc1cccc2ccccc12 [Example 11, 3-(3-(naphthalen-1-yloxy)propyl)-7-phenylbenzo[b]thiophene-2-carboxylic acid]"
18,301 to 500 nM,"Cc1cc(OCCCc2c(C(=O)NS(=O)(=O)CC3CCN(C(=O)c4cccn4C)CC3)[nH]c3ccccc23)cc(C)c1Cl [Example 211, 3-(3-(4-chloro-3,5-dimethylphenoxy)propyl)-N-(((1-(1-methyl-1H-pyrrole-2-carbonyl)piperidin-4-yl)methyl)sulfonyl)-1H-indole-2-carboxamide]"
19,501 to 999 nM,"Cc1cc(OCCCc2c(C(=O)NS(C)(=O)=O)[nH]c3ccccc23)cc(C)c1Cl [Example 29, 3-(3-(4-chloro-3,5-dimethylphenoxy)propyl)-N-(methylsulfonyl)-1H-indole-2-carboxamide]"
20,101 to 299 nM,"Cc1cc(OCCCc2c(C(=O)NS(=O)(=O)CCNS(=O)(=O)C3CCCCC3)[nH]c3ccccc23)cc(C)c1Cl [Example 149, 3-(3-(4-chloro-3,5-dimethylphenoxy)propyl)-N-((2-(cyclohexanesulfonamido)ethyl)sulfonyl)-1H-indole-2-carboxamide]"
21,101 to 299 nM,"Cc1cc(OCCCc2c(C(=O)NS(=O)(=O)CCNC(=O)C3CCCCC3)n(Cc3cccnc3)c3cc(Cl)ccc23)cc(C)c1Cl [Example 275, 6-chloro-3-(3-(4-chloro-3,5-dimethylphenoxy)propyl)-N-((2-(cyclohexanecarboxamido)ethyl)sulfonyl)-1-(pyridin-3-ylmethyl)-1H-indole-2-carboxamide]"
22,301 to 500 nM,"Cc1cc(OCCCc2c(C(=O)NS(=O)(=O)CC3CCN(C(=O)OCc4ccccc4)CC3)[nH]c3cc(Cl)ccc23)cc(C)c1Cl [Example 209, benzyl 4-((N-(6-chloro-3-(3-(4-chloro-3,5-dimethylphenoxy)propyl)-1H-indole-2-carbonyl)sulfamoyl)methyl)piperidine-1-carboxylate]"
23,101 to 299 nM,"Cc1cc(OCCCc2c(C(=O)NS(=O)(=O)CCNC(=O)c3ccco3)[nH]c3ccccc23)cc(C)c1Cl [Example 171, 3-(3-(4-chloro-3,5-dimethylphenoxy)propyl)-N-((2-(furan-2-carboxamido)ethyl)sulfonyl)-1H-indole-2-carboxamide]"
24,101 to 299 nM,"Cc1ccccc1S(=O)(=O)NC(=O)c1[nH]c2ccccc2c1CCCOc1cc(C)c(Cl)c(C)c1 [Example 137, 3-(3-(4-chloro-3,5-dimethylphenoxy)propyl)-N-(o-tolylsulfonyl)-1H-indole-2-carboxamide]"
25,301 to 500 nM,"Cc1cc(OCCCc2c(C(=O)NS(=O)(=O)c3ccc(OCc4ccccc4)cc3)[nH]c3cc(Cl)ccc23)cc(C)c1Cl [Example 224, N-((4-(benzyloxy)phenyl)sulfonyl)-6-chloro-3-(3-(4-chloro-3,5-dimethylphenoxy)propyl)-1H-indole-2-carboxamide]"
26,101 to 299 nM,"Cc1cc(OCCCc2c(C(=O)NS(=O)(=O)CCNC(=O)c3cccc(Oc4ccccc4)c3)[nH]c3cc(Cl)ccc23)cc(C)c1Cl [Example 231, 6-chloro-3-(3-(4-chloro-3,5-dimethylphenoxy)propyl)-N-((2-(3-phenoxybenzamido)ethyl)sulfonyl)-1H-indole-2-carboxamide]"
27,301 to 500 nM,"Cc1cc(OCCCc2c(C(=O)NS(=O)(=O)CCNC(=O)c3cccn3Cc3ccccc3)n(Cc3cccnc3)c3cc(Cl)ccc23)cc(C)c1Cl [Example 277, N-((2-(1-benzyl-1H-pyrrole-2-carboxamido)ethyl)sulfonyl)-6-chloro-3-(3-(4-chloro-3,5-dimethylphenoxy)propyl)-1-(pyridin-3-ylmethyl)-1H-indole-2-carboxamide]"
28,101 to 299 nM,"Cc1cc(OCCCc2c(C(=O)NS(=O)(=O)CCNC(=O)c3cccn3Cc3ccccc3)[nH]c3ccccc23)cc(C)c1Cl [Example 200, N-((2-(1-benzyl-1H-pyrrole-2-carboxamido)ethyl)sulfonyl)-3-(3-(4-chloro-3,5-dimethylphenoxy)propyl)-1H-indole-2-carboxamide]"
